Measurements from patent US8119614B2, “Substitution derivatives of N6-benzyladenosine, methods of their preparation, their use for preparation of drugs, cosmetic preparations and growth regulators, pharmaceutical preparations, cosmetic preparations and growth regulators containing these compounds” (Ustav Experimentalni Botaniky Akademie Ved Ceske Republiky, priority 2002, dated 2012).

Legend:
glutamate kinase = experiment: Field studies: glutamate kinase activity in spring wheat; assay type: in vivo; design: tested at 1 µM (10^-6 M spray solution); details: 6 days after the application, Control = 100.0
Protocol: (§1) Height of plants, leaf area, dry matter, development of vegetation opex—bases of future spike, and number of spikelets were monitored after germination in 14 day intervals, […]. From these primary data, values used in production physiology are derived, as leaf area index LAI, photosynthetic capacity LAD, tillering potential. Experiments with treatment of spring wheat crop (variety Sandra) are carried out on the field (area 10 m^2, four replicates) by spraying 1 litr of 10^−6 molar solution of tested compound (cytokinin) at the transition period from jointing stage to athesis stage (49 DC).
Glutamate kinase activity was determined 6 days after the application. This enzyme was selected because of good corelation of its activity changes and state of transport of endogenous substances (nutrients from roots, assimilates to cariopsis), respiration, energy (adenosintriphosphate) transfer, storage of nutrients, growth and developmental proceses, and also metabolism of proline, which is known from literature to play an important role in adaptation against stress (unsuitable stand, drought, hypersalinity, coldness) and also in regulation of both theoretical and real production (restriction of seed number reduction per spikelet). Enzyme glutamate kinase catalyses to glutamate conversion into γ glutamylphosphate, which is first step of proline biosynthesis from glutamate. Therefore, this enzyme is, as essential precursor of other plant metabolic pathways, marker of stress inhibition. It can be determined spectrofotometrically (Vasáková, 1980). For analysis, acetone powder is prepared from a sample by standard method, subsequently extracted by 0.05M potassium-phosphate buffer pH=7.2 and centrifugated. Glutamate kinase fraction is precipitated using crystalline ammonium sulfate and after dialysis, glutamate kinase activity is determined spectrophotometrically. Proline accumulation increased by stress corresponds as a “feedback” to glutamate kinase inhibition.

[1] = system: spring wheat (variety Sandra); experiment: Field studies: yield analysis of spring wheat crop; assay type: in vivo; details: spray of 10^−6 molar solution, Control = 100.0
Protocol: Crops (over the 4-year period) of spring wheat were sown in the experimental fields of Czech Agriculture University (CZU) (region of sugar beet production type) at a seeding rate of 400 germinative grains·m^−2 into ploughed and shoddy soil containing 116.1 mg/kg P, 228.3 mg/kg K, and 211.8 mg/kg Mg (agrochemical analyses were done at Department of Pedology CZU) (interval between ploughing and sowing is usually 3-4 days, longer only in case of adverse weather conditions). Preceding crop was rape. Soil preparation was done by the classical way using skid and harrow and after seeding is rolled.
as §1
Yield analysis, evaluating spike lenght and seed number per spikelet (Σ Z/K) were carried out for 30 plant per each variant, yield from 1 m^2 and 1000 grain weight (HTS) was determined from 8 replicates, yield per ha was subsequently calculated.

Rosa multiflora = experiment: In vitro and post vitro multiplication and rooting of rose; assay type: in vivo; details: for Root number per plant / Total root length per plant (cm): Ex vitro, after four weeks of acclimatising; for Flower number per explant / Number of new shoots per explant / Root number per explant / Total root length per explant (cm): In vitro, 10 μM, 8 weeks
Rosa hybrida ‘Pailin’ = experiment: Early shoot senescence inhibition of tissue cultured roses; assay type: in vivo; details: 10 μM in medium
Protocol: Rosa hybrida ‘Pailin’ (a cut rose) was cultured in 350 ml vessels with a screw on polycarbonate lid. Each culture vessel contained 100 ml autoclaved medium (120° C., 20 min). The cultures were maintained at 23±2° C. under a 16 h photoperiod at […] m^−2 s^−1 PAR. The basal medium (MBR) contained Murashige and Skoog (1962) macroelements, microelements and vitamins, 36.7 mg/l NaFeEDTA, 50 mg/l NaFeEDDHA, […], 30 g/l sucrose, 100 mg/l glycine, 50 mg/l calcium pantothenate, 100 mg/l L-glutamine and 7 g/l agar-agar. This medium was supplemented with 10 μM of the tested cytokinin. New cytokinins were filter sterilised and added after autoclaving the medium in the vessels. 6-Benzylaminopurine (BAP) was used as a standard compound; the control medium didn't contain any cytokinin. After a culture period of 6 weeks, scoring senescence symptoms was started.

caspase-3 = experiment: Caspase protease activity measurement in cell extracts, caspase-3; assay type: cell-based, human; details: 20 μM, substrate Ac-DEVD-AMC (FIG. 9)
Protocol: Caspase protease activity measurement. Cells were washed in PBS and then extracted in buffer [50 mM HEPES, pH 7.4, 1 mM EDTA, 0.1% Chaps, 5 mM DTT, and proteinase inhibitor cocktail (Roche)] on ice. Cell extracts were centrifuged for 30 min at 30 000×g at 4° C. Clarified extract were immediately analysed or stored at −80° C. Measurement of proteolytic activity was done using synthetic fluorogenic substrates Ac-DEVD-AMC and Ac-LEHD-AMC for caspase-3 and -9, respectively. The assay was carried out in 1 ml tubes, aliquots of lysates (200-300 μg of total protein) were mixed with 1 ml of buffer (25 mM PIPES/KOH, 2 mM EGTA, 5 mM DTT, and 0.1% Chaps, pH 7.3) and reactions were initiated by adding 50 μM substrate. Samples were incubated for 1 hour at 30° C. before the fluorescence was determined. Excitation and emission wavelengths were the same for both substrates (380 nm and 445 nm, respectively).

HL-60 cells [2] = experiment: Induction of apoptosis in HL-60 cells (nuclear morphology, DNA fragmentation); assay type: cell-based, human; details: 24 h (FIG. 5-7)
Protocol: (§2) Cell culture. A suspension of human promyelocytic HL-60 cells was cultured in RPMI-1640 medium supplemented with a 10% calf foetal serum and antibiotics in 5% CO2 atmosphere at 37° C. Cells were maintained at density from 1×10^5 to 6×10^5 cells per ml. HL-60 cells were obtained from ECACC.
Morphological analysis of cell nuclei. Cells were harvested, washed in PBS, and fixed in an ice-cold methanol+acetic acid (3:1) fixation mixture. Aliquots of cells were spread on glass slides and stained with Hoechst 33342 (2 μg/ml) in PBS. The morphology of cell nuclei was examined by a fluorescence microscope (Mlejnek and Kuglik 2000).
DNA fragmentation assay. Aliquots of cells were washed in PBS and lysed by addition of DNA lysis buffer (50 mM Tris/HCl, pH=8.0, 10 mM EDTA, 0.5% sodium lauroyl sarcosine, and 0.5 mg/ml proteinase K) at 37° C. overnight. Samples were treated further with DNase-free RNase-A (0.2 mg/ml) at 37° C. for 3 h. The resulting extracts were loaded onto 1.8% agarose gel containing ethidium bromide (Mlejnek and Kuglik 2000).

HL-60 cells [3] = experiment: Cell cycle analysis (flow cytometry); assay type: cell-based, human; details: 5 μM, 24 h (FIG. 8)
Protocol: as §2
Cell cycle analysis. Cells were washed in PBS and then fixed in 70% ethanol at −20° C. over night. Fixed cells are washed in PBS and stained in PBS containing PI (20 μg/ml) and RNase A (100 μg/ml) for 30 min at 37° C. prior to FACScan analysis (Mlejnek and Kolman 1999).

Row | Structure (SMILES) | GK % (glutamate kinase activity) (glutamate kinase) [%] | HTS (%) (1000 grain weight) [1] | Yield(%) [1] [%] | Σ Z/K (%) (seed number per spikelet) [1] | Σ spike/m^2 (%) [1] [%] | Root number per plant (Rosa multiflora) | Total root length per plant (cm) (Rosa multiflora) | Flower number per explant (Rosa multiflora) | Number of new shoots per explant (Rosa multiflora) | Root number per explant (Rosa multiflora) | Total root length per explant (cm) (Rosa multiflora) | further results
1 | OC[C@H]1O[C@@H](n2cnc3c(NCc4ccc(Cl)c(Cl)c4)ncnc32)[C@H](O)[C@@H]1O [3,4-dichlorobenzylamino, 6-(3,4-dichlorobenzylamino)purine riboside] | 114.2 | 101.5 | 113.3 | 111.9 | 99.7 |  |  |  |  |  |  | 
2 | COc1cccc(CNc2ncnc3c2ncn3[C@@H]2O[C@H](CO)[C@@H](O)[C@H]2O)c1 [3-methoxybenzylamino, 6-(3-methoxybenzylamino)purine riboside] |  |  |  |  |  | 1.4 | 3.5 | 0.00 | 5.6 | 0.0 | 0.0 | senescence / dying of rose explants (in words) (Rosa hybrida ‘Pailin’; listed as 3MeOBAPR): Even after 121 days almost all plants were still alive; senescence / dying of rose explants (in words) (Rosa hybrida ‘Pailin’; listed as mMeOBAPR): vigorous Rosa plantlet after 121 days of cultivation
3 | OC[C@H]1O[C@@H](n2cnc3c(NCc4cccc(Cl)c4)ncnc32)[C@H](O)[C@@H]1O [3-chlorobenzylamino, 6-(3-chlorobenzylamino)purine riboside] | 124.7 | 108.3 | 128.8 | 119.1 | 100.5 |  |  |  |  |  |  | 
4 | COc1ccccc1CNc1ncnc2c1ncn2[C@@H]1O[C@H](CO)[C@@H](O)[C@H]1O [2-methoxybenzylamino, 6-(2-methoxybenzylamino)purine riboside] |  |  |  |  |  | 1.6 | 4.8 | 0.17 | 1.4 | 0.0 | 0.0 | 
5 | COc1cccc(CNc2ncnc3c2ncn3[C@@H]2O[C@H](CO)[C@@H](O)[C@H]2O)c1O [2-hydroxy-3-methoxybenzylamino, 6-(2-hydroxy-3-methoxybenzylamino)purine riboside] |  |  |  |  |  |  |  |  |  |  |  | activation of caspase-3 (caspase-3): activate caspase proteases, especially caspase-9 and -3; induction of HL-60 cell death / apoptosis (HL-60 cells [2]): induce HL-60 cell death, with typical morphological and biochemical characteristics of apoptosis; effect on cell cycle (HL-60 cells [3]): does not inhibit cell cycle in certain control point(s), but rather unspecifically
6 | OC[C@H]1O[C@@H](n2cnc3c(NCc4cccc(Br)c4)ncnc32)[C@H](O)[C@@H]1O [3-bromobenzylamino, 6-(3-bromobenzylamino)purine riboside] | 116.6 | 101.5 | 131.8 | 123.8 | 104.9 |  |  |  |  |  |  | 
